According to patent US20080103209A1, “Compounds And Methods For Treating Non-Inflammatory Pain Using Ppar Alpha Agonists” (The Regents of The University of California, priority 2004, published 2008):

Experiments:
[1] = tested on: mice; test: Formalin-evoked pain behavior (hind paw licking); type: in vivo, mouse; conditions: for effect of CB2 antagonist on antinociceptive effect of GW7647: GW7647 50 μg i.pl.; for effect of CB2 antagonist on antinociceptive effect of GW7647 / effect of CB2 antagonist on antinociceptive effect of PEA: AM630 2 mg-kg^−1 i.p.; for effect of CB2 antagonist on antinociceptive effect of PEA: PEA 50 μg i.pl.; for phase I and II formalin pain in wild-type mice: wild-type C57BL6 mice
Description: Administration of formalin into the mouse hind paw evokes a pain behavior consisting of two temporally distinct phases of licking and flexing of the injected limb (Dubuisson, et al., Pain 4, 161-74 (1977)). The first phase, which starts immediately after formalin injection and lasts 5-10 min, is due to activation of nociceptive fibers and is accompanied by the local release of nitric oxide and adenosine [Dickenson, et al., Neurosci Lett 83, 207-11 (1987); Omote, et al., Brain Res 787, 161-4 (1998); Omote et al., 2000; Liu, et al., J Neurochem 80, 562-70 (2002)]. Following a quiescent interval of 10-15 minutes, a second phase of nociceptive behavior appears, which is associated with local inflammation [Rosland, et al., Pain 42, 235-42 (1990)] and central sensitization [Coderre, et al., J Neurosci 12, 3665-70 (1992)]. […] (2001); Farquuar-Smith, 2002]. […] The effects of PEA in C57BL/6J mice in which the PPARα gene had been deleted by homologous recombination (PPARα^−/−)[Lee, et al., Mol Cell Biol 15, 3012-22 (1995)] were examined to determine whether PPARα contributes to these properties.
Although PPARα is known to regulate the inflammatory response [Devchand, et al., Nature 384, 39-43. (1996); Cabrero, et al., Curr Drug Targets Inflamm Allergy 1, 243-8 (2002); Berger, et al., Annu Rev Med 53, 409-35 (2002); Chinetti, et al., Inflamm Res 49, 497-505 (2000)], its roles in the modulation of acute nociceptive pain remain unexplored. A series of structurally diverse PPAR-α agonists were tested for their ability to reduce pain behavior in an animal model of chemical tissue damage. Injection of formalin into the mouse hind paw evokes a nocifensive behavior consisting of two distinct phases. The first phase results from direct activation of nociceptive fibers and starts immediately after formalin administration, while the second phase develops over a period of approximately 60 min and is associated with local inflammation and central sensitization.
Mice received intraplantar injections of formalin (5% vol/vol, 10 μl) in saline containing polyethylene glycol (5%) and Tween 80 (5%). The duration of paw licking was monitored by an observer for periods of 0-15 min (early or first phase) and 15-45 min (late or second phase) immediately after formalin administration.
Formalin test. Formalin (5%, 10 μl)-induced paw licking was monitored for 0-15 min (first phase) and 15-45 min (second phase) as described (Calignano, et al., Nature 394, 277-81 (1998).

[2] = tested on: mice; test: TPA-induced ear edema (irritant contact dermatitis); type: in vivo, mouse; conditions: topical co-application, CD1 mice
Description: (§1) In addition to rapid-onset analgesia, PEA also exerts prolonged anti-inflammatory effects [Benvenuti, et al., Boll Soc It Biol Sper 44, 809-813 (1968); Lambert, et al., Curr Med. Chem. 9, 663-74 (2002)], which are associated with the down-regulation of pro-inflammatory proteins such as nitric oxide synthase (NOS) [Costa, et al., Br J Pharmacol 137, 413-20. (2002)]. Two models of acute inflammation were used to examine whether such effects are mediated through PPARα. First, paw edema was induced in C57B16J wild-type and PPARα^−/− mice by local injection of the irritant, carrageenan [Cirino, et al., Eur J Pharmacol 166, 505-10 (1989)]. […] Next, ear edema was produced in CD1 mice by topical administration of the phorbol ester, 12-O-tetradecanoylphorbol-13-acetate (TPA) [Sheu, et al., J Invest Dermatol., 94-101. (2002)]. […] In a parallel set of experiments, the effects of PEA (20 μg) on TPA-induced edema were tested in C57B16J wild-type and PPARα^−/− mice. […] Together, these findings indicate that PEA reduces acute nociception and inflammation through activation of PPARα.
As previous described procedure [Sheu, et al., J Invest Dermatol., 94-101. (2002)], 12-O-tetradecanoylphorbol-13-acetate (TPA) was dissolved in acetone (0.03%, w v^−1) and topically delivered with a pipette to the inner and outer surfaces (10 μl/side) of mice ears. Experimental agents were dissolved in acetone and delivered topically (20 μl/side) 45 minutes and 4 hours after TPA. 18 hours after TPA administration, the mice were euthanized with CO2 and the ears punched (diameter=2 mm) four times. The 4 excised punches of skin were combined and weighed to assess edema.

[3] = tested on: mice; test: Carrageenan-evoked paw edema (acute); type: in vivo, mouse; conditions: wild-type C57Bl6J; PEA 10 mg-kg^−1 i.p., WY-14643 20 mg-kg^−1 i.p.
Description: as §1
An inflammatory response was initiated by injecting 2% (w v^−1, 20 μl) λ-carrageenan in sterile saline into mice hind paws using a 27-gauge needle. Drugs were administered 30 minutes before carrageenan (i.p.). Paw edema was measured using a plethysmometer (Ugo Basile, Italy).

[4] = tested on: mice; test: Magnesium sulfate-evoked writhing test; type: in vivo, mouse; conditions: subcutaneous, Swiss mice
Description: Mice received a single dose of magnesium sulfate (120 mg/kg, dissolved in 0.5 ml saline, i.p.) and subsequent writhing episodes were monitored for a period of 30 min thereafter. Drugs were administered in saline/Tween 80/polyethylenglycol, (90/5/5) subcutaneously, 30 minutes before magnesium sulfate.
Next, the effect of PPARα agonists on the nocifensive behavior elicited by intraperitoneal injection of magnesium sulfate in mice, a model of visceral pain (Calignano, et al, Eur J Pharmacol 419, 191-8. (2001)), was explored.
Writhing test. Magnesium sulfate was injected (120 mg-kg^−1 in 0.5 ml saline, i.p.) in 12-h food-deprived mice and measured writhing episodes for 30 min (Calignano, et al, Eur J Pharmacol 419, 191-8. (2001)). Drugs or vehicle were administered by subcutaneous injection 30 min before magnesium sulfate.

[5] = molecular target: T1, human CB2 (Homo sapiens, UniProt P34972); test: CB2 receptor binding, [3H]-WIN-55212-2 displacement in CB2-overexpressing CHO cell membranes
T1 construct: purchased Perkin-Elmer, Boston, Mass; host or cells: CHO cells (membranes)

[6] = tested on: Swiss mice; test: Sciatic nerve ligation neuropathy, mechanical and thermal hyperalgesia; type: in vivo, mouse
Description: To examine whether PPARα agonists modulate the persistent pain hypersensitivity associated with nerve injury, peripheral neuropathy was produced in mice by partially ligating the left sciatic nerve, a surgical procedure that results in the development of mechanical and thermal hyperalgesia in the operated limb (Bennett et al., Pain, 33, 87 (1988)).
Sciatic nerve ligation was performed essentially following the method of Bennett and Xie (Bennett et al., Pain 33, 87 (1988)). Briefly, male Swiss mice were anesthetized with sodium pentobarbital, the left sciatic nerve was exposed at mid-thigh level through a small incision and one-third to one-half of the nerve thickness was tightly ligated with a silk thread. The wound was closed with a single muscle suture and skin clips, and dusted with streptomycin powder. In sham-operated animals, the nerve was exposed but not ligated.
Mechanical hyperalgesia was determined by measuring paw withdrawal thresholds to an increasing pressure onto the dorsal surface of the paw using an analgesimeter (Ugo Basile, Italy) with a cut-off of 250 g. Withdrawal thresholds were measured on both the ipsilateral paw (inflamed or ligated) and contralateral paw (uninflamed or unligated) 60 min after subcutaneous drug administration.
Thermal hyperalgesia was assessed by the methods of Hargreaves (Hargreaves et al., Pain, 32, 77 (1988)) by measuring the latency to withdraw the hind paws from a focussed beam of radiant heat applied to the plantar surface, using an appropriate apparatus (Ugo Basile, Italy). The cut-off time was set at 30 sec. The mice were habituated to the apparatus for 10-15 min two days prior to the experiment.

[7] = molecular target: T2, human PPARα (Homo sapiens, UniProt Q07869); test: PPARα transactivation assay (HeLa cells, luciferase reporter); type: cell-based
T2 construct: expressed in transfected cells
T2 sequence (Q07869 239-466 limits assumed): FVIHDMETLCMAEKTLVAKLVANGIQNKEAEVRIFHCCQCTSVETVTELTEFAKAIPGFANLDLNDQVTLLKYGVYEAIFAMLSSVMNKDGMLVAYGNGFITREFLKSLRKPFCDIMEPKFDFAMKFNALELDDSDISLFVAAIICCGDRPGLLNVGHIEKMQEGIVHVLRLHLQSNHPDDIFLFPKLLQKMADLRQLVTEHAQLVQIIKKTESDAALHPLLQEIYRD
Description: Transactivation assays were performed as previously described [Fu et al., Nature 425:90-93 (2003)].
PPAR-α transactivation. Plasmids were generated which contained the ligand-binding domain of human PPAR-α (nucleotides 499-1,407) fused to the DNA-binding domain of yeast GAL4 under control of the human cytomegalovirus promoter and to a neomycin resistance gene to provide stable selection with 0.2 mg-ml-1 G418 (Calbiochem). We cultured HeLa cells in Dulbecco's-modified Eagles's medium (DMEM) supplemented with fetal bovine serum (10%), transfected them with Fugene 6 ([…], Roche) containing the pFR-luc plasmid ([…], Stratagene) and, 18 h later, replaced the media with DMEM containing hygromycin (0.1 mg ml−1, Calbiochem). […] Cells were maintained in DMEM containing hygromycin and G418. For transactivation assays, we seeded cells in 6-well plates and incubated them for 7 h in DMEM containing hygromycin and G418, plus appropriate concentrations of test compounds. We used a dual-luciferase reporter assay system (Promega) and an MLX Microtiter® plate luminometer (Dynex) to determine luciferase activity in cell lysates.

[8] = formalin, Swiss mice, SR144528 1 mg-kg^−1

T1 sequence (P34972 whole entry): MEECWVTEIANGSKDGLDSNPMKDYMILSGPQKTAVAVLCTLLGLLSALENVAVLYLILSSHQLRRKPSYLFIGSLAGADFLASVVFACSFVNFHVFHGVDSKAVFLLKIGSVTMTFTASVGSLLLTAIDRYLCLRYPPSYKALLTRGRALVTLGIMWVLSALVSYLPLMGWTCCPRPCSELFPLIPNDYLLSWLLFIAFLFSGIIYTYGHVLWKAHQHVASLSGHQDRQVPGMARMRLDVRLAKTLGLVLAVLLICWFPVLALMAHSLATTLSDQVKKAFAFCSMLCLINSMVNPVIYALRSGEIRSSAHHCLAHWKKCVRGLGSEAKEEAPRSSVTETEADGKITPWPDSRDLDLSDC

Question: CCCCC/C=C\C/C=C\C/C=C\C/C=C\CCCC(=O)N[C@H](C)CO [(R)-methanandamide] was tested. Which “formalin pain in PPARα−/− mice” value ([1]; PPARα−/− mice, 50 μg i.pl.) did it give?
Answer: reversed

Question: COc1ccc(C(=O)c2c(C)n(CCN3CCOCC3)c3cc(I)ccc23)cc1 [AM630] was tested. Which “effect of CB2 antagonist on antinociceptive effect of GW7647” value [1, 8] did it give?
Answer: did not affect

Question: And the “effect of CB2 antagonist on antinociceptive effect of PEA” value [1, 8]?
Answer: did not affect

Question: Which “phase I and II formalin pain in wild-type mice” value ([1]; 50 μg i.pl.) does the source give for Cc1cc(SCc2sc(-c3ccc(C(F)(F)F)cc3)nc2C)ccc1OCC(=O)O [GW501516] here?
Answer: inactive

Question: Which “effect on antinociception by anandamide plus PEA or GW7647” value ([1]; SR141716 0.1 mg kg^−1 i.v., 10 min before formalin, agonists 0.1 μg/paw each) does the source give for Cc1c(C(=O)NN2CCCCC2)nn(-c2ccc(Cl)cc2Cl)c1-c1ccc(Cl)cc1 [SR141716] here?
Answer: prevents

Question: Cc1cccc(Nc2cc(Cl)nc(SCC(=O)O)n2)c1C [Wy-14643, [4-chloro-6-(2,3-xylidino)-2-pyrimidinylthio]acetic acid] was tested. Which “TPA-induced ear edema formation” value [2] did it give?
Answer: attenuated

Question: What about the “carrageenan paw edema in wild-type mice” value [3] of the same compound?
Answer: decreased edema

Question: What about the “average ED50, magnesium sulfate-evoked writhing” value ([4]; n=8) of the same compound?
Answer: 25 mg/kg

Question: And the “number of writhing episodes evoked by magnesium sulfate” value ([4]; GW7647 1-30, Wy-14643 4-80, PEA 1-20 mg-kg^−1)?
Answer: dose-dependently decreased the number of writhing episodes

Question: What about the “[^3H]-WIN-55212-2 Binding (% of control)” value ([5]; Concentration 1 μM) of the same compound?
Answer: 104.2 ± 3.6 % of control

Question: What about the “[^3H]-WIN-55212-2 Binding (% of control)” value ([5]; Concentration 10 μM) of the same compound?
Answer: 105.6 ± 1.5 % of control

Question: And the “first- and second-phase nociception” value ([1]; Swiss mice, i.pl. together with formalin, GW7647 0.1-50 μg, Wy-14643 50-200 μg, fenofibric acid 100-400 μg)?
Answer: attenuated first- and second-phase nociception in a dose-dependent manner

Question: What about the “average half-maximal effective dose (ED50) to reduce first-phase pain” value ([1]; intraplantar with formalin, Swiss mice, ten experiments) of the same compound?
Answer: 97.0 µg

Question: How did the “phase I and II formalin pain in wild-type mice” value ([1]; 50 μg i.pl.) turn out when CC1(COc2ccc(CC3SC(=O)NC3=O)cc2)CCCCC1 (stereo not drawn) [ciglitazone] was run?
Answer: inactive

Question: For NCC1(CC(=O)O)CCCCC1 [gabapentin], which “mechanical and thermal pain thresholds in the non-ligated paw of neuropathic mice” value ([6]; data not shown) is on record?
Answer: did not affect

Question: And the “neuropathic hypersensitivity (mechanical and thermal pain thresholds), ligated limb” value ([6]; single s.c. dose day 7 and 14 after surgery, 60 min before test, PEA, GW7647 30 mg-kg^−1, gabapentin 60 mg-kg^−1)?
Answer: comparable in magnitude

Question: For CCCCCCCCCCCCCCCC(=O)O [palmitic acid], which “PPARα activation” value ([7]; HeLa cells, identical conditions) is on record?
Answer: no effect

Question: For SR144528, which “effect of CB2 antagonist on antinociceptive effect of GW7647” value [1, 8] is on record?
Answer: reverse

Question: And the “effect of CB2 antagonist on antinociceptive effect of PEA” value [1, 8]?
Answer: blocked

Question: What about the “effect of CB2 antagonist on antinociceptive effect of Wy-14643” value ([1]; formalin, Swiss mice, Wy-14643 100 μg i.pl., SR144528 1 mg-kg^−1) of the same compound?
Answer: reverse

Question: And the “antagonism of PEA-induced PPARα activation in vitro” value ([7]; PEA 10 μM, SR144528 0-5 μM)?
Answer: did not significantly antagonize
